This is an account of results in paper PMC5954419 (Biochemistry, 2017).

Structures are written as SMILES.

This experiment deals with T1, MGST1 (unactivated) (Rattus norvegicus, UniProt P08011).
T1 sequence (P08011 2-155): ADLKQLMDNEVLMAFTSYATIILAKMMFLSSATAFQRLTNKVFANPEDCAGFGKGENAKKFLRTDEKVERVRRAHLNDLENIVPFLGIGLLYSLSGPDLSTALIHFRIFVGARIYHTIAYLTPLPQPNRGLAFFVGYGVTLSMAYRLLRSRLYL
The experiment is described as follows: steady-state spectrophotometric product formation. Format: biochemical. The following applies: 5 mM GSH, 5 °C, pH 6.5, 0.1 M potassium phosphate, 0.1% Triton X-100; unactivated enzyme.

For orientation: Km means the concentration of substrate that gives half-maximal velocity. Take `O=[N+]([O-])c1ccc(Cl)c([N+](=O)[O-])c1` [CDNB, 1-Chloro-2,4-dinitrobenzene]: the Km turned out to be 11 ± 2 µM.
